Data taken from patent US8283465B2, “Triazolopyridine compound, and action thereof as prolyl hydroxylase inhibitor or erythropoietin production-inducing agent” (Japan Tobacco Inc., priority 2009, dated 2012).
Counter-ions that a name gives are not always drawn.

Key:
human PHD2 = molecular target: T1, human PHD2 (Homo sapiens, UniProt Q9GZT9); test: Measurement of human PHD inhibitory activity (TR-FRET, hydroxylation of HIF-1α partial peptide); type: biochemical; settings: human PHD2 enzyme 1 nM, 25° C. 30 min, values consisting solely of numbers; read-out: IC50 (μM) in vitro, human PHD inhibitory activity
T1 construct: made in house; host or cells: Sf9 insect cells (baculovirus, pVL1393 vector)
T1 sequence (Q9GZT9 whole entry): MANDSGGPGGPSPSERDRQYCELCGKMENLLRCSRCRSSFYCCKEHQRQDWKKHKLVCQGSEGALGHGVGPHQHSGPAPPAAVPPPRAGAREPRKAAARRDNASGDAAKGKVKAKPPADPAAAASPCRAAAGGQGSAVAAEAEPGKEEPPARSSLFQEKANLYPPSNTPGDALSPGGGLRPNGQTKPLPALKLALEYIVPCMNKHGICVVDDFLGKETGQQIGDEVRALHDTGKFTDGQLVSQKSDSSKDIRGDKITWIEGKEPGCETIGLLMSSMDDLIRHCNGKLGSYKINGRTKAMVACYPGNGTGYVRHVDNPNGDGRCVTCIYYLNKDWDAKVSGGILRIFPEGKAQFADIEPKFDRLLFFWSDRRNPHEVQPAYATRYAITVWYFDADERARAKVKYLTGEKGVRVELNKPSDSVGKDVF
In short: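 FLAG-tagged human PHD2 from Sf9 cells (1 nM final) hydroxylates a biotinylated 19-residue HIF-1α peptide, 30 min at 25° C. After EDTA stop, hydroxyproline detected by TR-FRET using Eu/Xlent-labelled VBC complex; % inhibition relative to no-enzyme and no-compound wells.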

[1] = tested on: human EPO production, Hep3B cells; test: Human EPO production activity in Hep3B cells (EPO-ELISA of culture supernatant); type: cell-based; settings: for EC50: Homo sapiens, 24 hr incubation, values consisting solely of numbers, read-out: EC50 (μM) in vitro, human EPO production activity; for production activity (%) at 30 μM in vitro, human EPO: 24 hr, values containing %, relative to maximum production
In short: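 Hep3B cells were dosed with compound 24 h after plating and incubated 24 h at 37° C. Secreted EPO in supernatant was measured by ELISA. Values are EC50, or activity (%) at 30 μM scaled between untreated and maximum production.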

Row | Compound | IC50 (human PHD2) [µM] | EC50 [1] [µM] | production activity (%) at 30 μM in vitro, human EPO [1] [%]
1 | O=C(O)CNC(=O)c1c(O)cc(-c2cccc(C(F)(F)F)c2)n2ncnc12 [Example 33, {[7-hydroxy-5-(3-trifluoromethyl-phhenyl)[1,2,4]triazolo[1,5-a]pyridine-8-carbonyl]ammino}acetic acid hydrochloride] | 0.46 | 10.1 | 
2 | Cc1ccc(-c2cc(O)c(C(=O)NCC(=O)O)c3ncnn23)cc1 [Example 26, {[7-hydroxy-5-(p-tolyl)[1,2,4]triazolo[1,5-a]pyridine-8-carbonyl]amino}acetic acid hydrochloride] | 0.33 | 7.5 | 
3 | O=C(O)CNC(=O)c1c(O)cc(-c2cccc(C(F)(F)F)c2F)n2ncnc12 [Example 55, {[5-(2-fluoro-3-trifluoromethyl-phenyl)-7-hydroxy[1,2,4]triazolo[1,5-a]pyridine-8-carbonyl]amino} acetic acid hydrochloride] | 0.23 | 8.9 | 
4 | O=C(O)CNC(=O)c1c(O)cc(CCc2ccc(C(F)(F)F)cc2)n2ncnc12 [Example 16, ({7-hydroxy-5-[2-(4-trifluoromethyl-phenyl)ethyl][1,2,4-]triazolo[1,5-a]pyridine-8-carbonyl}amino)acetic acid hydrochloride] | 0.32 | 7 | 
5 | O=C(O)CNC(=O)c1c(O)cc(-c2cccc(F)c2)n2ncnc12 [Example 42, {[5-(3-fluorophenyl)-7-hydroxy[1,2,4]triazolo[1,5-a]pyridine-8-carbonyl]amino}acetic acid hydrochloride] | 0.24 | 14.2 | 
6 | O=C(O)CNC(=O)c1c(O)cc(CC2CCC2)n2ncnc12 [Example 53, [(5-cyclobutylmethyl-7-hydroxy[1,2,4]triazolo[1,5-a]pyridine-8-carbonyl)amino] acetic acid hydrochloride] | 0.5 | 8.9 | 

More lines, main results first:

Row | IC50 (human PHD2) [µM] | EC50 [1] [µM] | Compound | production activity (%) at 30 μM in vitro, human EPO [1] [%]
7 | 0.37 |  | Cl.O=C(O)CNC(=O)c1c(O)cc(CCc2cccc(C(F)(F)F)c2)c2ncnn12 [Example 101, ({6-hydroxy-8-[2-(3-trifluoromethyl phenyl)ethyl] [1,2,4]triazolo[1,5-a]pyridine-5-carbonyl}amino) acetic acid hydrochloride] | 6
8 | 1.53 |  | Cl.O=C(O)CNC(=O)c1c(O)cc(CC2CCCCC2)c2ncnn12 [Example 91, [(8-cyclohexylmethyl-6-hydroxy[1,2,4]triazolo[1,5-a]pyridine-5-carbonyl)amino] acetic acid hydrochloride] | 43
9 | 0.18 | 6.9 | O=C(O)CNC(=O)c1c(O)cc(-c2cc(Cl)cc(C3CC3)c2)c2ncnn12 [Example 103, {[8-(3-chloro-5-cyclopropylphenyl)-6-hydroxy[1,2,4]triazolo[1,5-a]pyridine-5-carbonyl]amino} acetic acid hydrochloride] | 
10 | 0.21 | 23.7 | O=C(O)CNC(=O)c1c(O)cc(-c2cc(F)ccc2F)n2ncnc12 [Example 75, {[5-(2,5-difluorophenyl)-7-hydroxy[1,2,4]triazolo[1,5-a]pyridine-8-carbonyl]amino} acetic acid hydrochloride] | 
11 | 0.51 | 16 | O=C(O)CNC(=O)c1c(O)cc(CCc2ccc(C(F)(F)F)cc2)c2ncnn12 [Example 102, ({6-hydroxy-8-[2-(4-trifluoromethyl phenyl)ethyl] [1,2,4]triazolo[1,5-a]pyridine-5-carbonyl}amino) acetic acid hydrochloride] | 
12 | 6.09 |  | CCCc1c(Cl)c(O)c(C(=O)NCC(=O)O)c2ncnn12.Cl [Example 81, [(6-chloro-7-hydroxy-5-propyl[1,2,4]triazolo[1,5-a]pyridine-8-carbonyl)amino] acetic acid hydrochloride] | 33
13 | 0.12 | 4.2 | O=C(O)CNC(=O)c1c(O)cc(-c2cc(Cl)cc(Cl)c2)c2ncnn12 [Example 89, {[8-(3,5-dichlorophenyl)-6-hydroxy[1,2,4]triazolo[1,5-a]pyridine-5-carbonyl]amino} acetic acid hydrochloride] | 
14 | 0.16 | 20.6 | O=C(O)CNC(=O)c1c(O)cc(-c2cc(F)cc(F)c2)c2ncnn12 [Example 85, {[8-(3,5-difluorophenyl)-6-hydroxy[1,2,4]triazolo[1,5-a]pyridine-5-carbonyl]amino} acetic acid hydrochloride] | 
